Organism: Rattus norvegicus
Assay: DrugMatrix - Regimen: Daily Repeat
Format: toxicity, organism-based, Sprague-Dawley
Parameters: regimen Daily Repeat, gender Male, age 6-8 weeks
Settings: in vivo, po, route oral GAVAGE, vehicle .5 % CMC; for ABSOLUTE BASOPHIL / ABSOLUTE EOSINOPHIL / ABSOLUTE LYMPHOCYTE / ABSOLUTE MONOCYTE / ABSOLUTE SEGMENTED NEUTROPHIL / BASOPHIL / EOSINOPHIL / ERYTHROCYTE COUNT / HEMATOCRIT / HEMOGLOBIN / LEUKOCYTE COUNT / LYMPHOCYTE / MEAN CORPUSCULAR HEMOGLOBIN / MEAN CORPUSCULAR HEMOGLOBIN CONCENTRATION / MEAN CORPUSCULAR VOLUME / MONOCYTE / NEUTROPHIL / NUCLEATED RED BLOOD CELLS / PLATELET COUNT: tissue Blood; for ALANINE AMINOTRANSFERASE / ALBUMIN / ALKALINE PHOSPHATASE / ASPARTATE AMINOTRANSFERASE / BLOOD UREA NITROGEN / CARBON DIOXIDE / CHLORIDE / CHOLESTEROL / CREATINE PHOSPHOKINASE / CREATININE / GLUCOSE / LACTATE DEHYDROGENASE / LIPASE / PHOSPHORUS / POTASSIUM / SODIUM / TOTAL BILIRUBIN / TOTAL PROTEIN / URIC ACID: tissue Plasma
[1] = 75 mg/kg, 120 h, dose level High, time 5 day
[2] = […], 72 h, dose 7.5 mg/Kg, dose level Low, time 3 day
[3] = […], 120 h, dose 7.5 mg/Kg, dose level Low, time 5 day

## Cc1ccc(/N=C/N(C)/C=N/c2ccc(C)cc2C)c(C)c1 [AMITRAZ]
[1]
  ABSOLUTE BASOPHIL: 0 CELLS/uL
  ABSOLUTE EOSINOPHIL: 78.67 CELLS/uL
  ABSOLUTE LYMPHOCYTE: 10570.33 CELLS/uL
  ABSOLUTE MONOCYTE: 41.33 CELLS/uL
  ABSOLUTE SEGMENTED NEUTROPHIL: 1409.67 CELLS/uL
  BASOPHIL: 0%
  EOSINOPHIL: 0.67%
  ERYTHROCYTE COUNT: 6.55 x10E6/uL
  HEMATOCRIT: 40.27%
  HEMOGLOBIN: 16.2 G/DL
  LEUKOCYTE COUNT: 12.1 x10E3/uL
  LYMPHOCYTE: 87.33%
  MEAN CORPUSCULAR HEMOGLOBIN: 24.73 pg
  MEAN CORPUSCULAR HEMOGLOBIN CONCENTRATION: 40.2 G/DL
  MEAN CORPUSCULAR VOLUME: 61.53 fL
  MONOCYTE: 0.33%
  NEUTROPHIL: 11.67%
  NUCLEATED RED BLOOD CELLS: 0 /100WBC
  PLATELET COUNT: 1330 x10E3/uL
  ALANINE AMINOTRANSFERASE: 42.33 u/L
  ALBUMIN: 4.3 G/DL
  ALKALINE PHOSPHATASE: 203.33 u/L
  ASPARTATE AMINOTRANSFERASE: 91.33 u/L
  BLOOD UREA NITROGEN: 18.67 mg/dL
  CARBON DIOXIDE: 21.67 mmol/L
  CHLORIDE: 104.33 MEQ/L
  CHOLESTEROL: 74 mg/dL
  CREATINE PHOSPHOKINASE: 460.67 u/L
  CREATININE: 0.26 mg/dL
  GLUCOSE: 172 mg/dL
  LACTATE DEHYDROGENASE: 250.67 u/L
  LIPASE: 11.67 u/L
  PHOSPHORUS: 15.2 mg/dL
  POTASSIUM: 7.47 MEQ/L
  SODIUM: 148.4 MEQ/L
  TOTAL BILIRUBIN: 0.2 mg/dL
  TOTAL PROTEIN: 6.17 G/DL
  URIC ACID: 2.83 mg/dL
[2]
  ABSOLUTE BASOPHIL: 0 CELLS/uL
  ABSOLUTE EOSINOPHIL: 136 CELLS/uL
  ABSOLUTE LYMPHOCYTE: 19510 CELLS/uL
  ABSOLUTE MONOCYTE: 209.33 CELLS/uL
  ABSOLUTE SEGMENTED NEUTROPHIL: 1444.67 CELLS/uL
  BASOPHIL: 0%
  EOSINOPHIL: 0.67%
  ERYTHROCYTE COUNT: 5.3 x10E6/uL
  HEMATOCRIT: 33.37%
  HEMOGLOBIN: 13.33 G/DL
  LEUKOCYTE COUNT: 21.3 x10E3/uL
  LYMPHOCYTE: 91.33%
  MEAN CORPUSCULAR HEMOGLOBIN: 25.17 pg
  MEAN CORPUSCULAR HEMOGLOBIN CONCENTRATION: 39.97 G/DL
  MEAN CORPUSCULAR VOLUME: 63.07 fL
  MONOCYTE: 1%
  NEUTROPHIL: 7%
  NUCLEATED RED BLOOD CELLS: 0.33 /100WBC
  PLATELET COUNT: 1400.67 x10E3/uL
  ALANINE AMINOTRANSFERASE: 46.33 u/L
  ALBUMIN: 4.13 G/DL
  ALKALINE PHOSPHATASE: 272 u/L
  ASPARTATE AMINOTRANSFERASE: 87.67 u/L
  BLOOD UREA NITROGEN: 17.33 mg/dL
  CARBON DIOXIDE: 25.33 mmol/L
  CHLORIDE: 103.33 MEQ/L
  CHOLESTEROL: 75.67 mg/dL
  CREATINE PHOSPHOKINASE: 199.33 u/L
  CREATININE: 0.22 mg/dL
  GLUCOSE: 185.67 mg/dL
  LACTATE DEHYDROGENASE: 127 u/L
  LIPASE: 8.67 u/L
  PHOSPHORUS: 11.97 mg/dL
  POTASSIUM: 6.06 MEQ/L
  SODIUM: 144.17 MEQ/L
  TOTAL BILIRUBIN: 0.23 mg/dL
  TOTAL PROTEIN: 5.7 G/DL
  URIC ACID: 2.07 mg/dL
[3]
  ABSOLUTE BASOPHIL: 0 CELLS/uL
  ABSOLUTE EOSINOPHIL: 0 CELLS/uL
  ABSOLUTE LYMPHOCYTE: 13348 CELLS/uL
  ABSOLUTE MONOCYTE: 98 CELLS/uL
  ABSOLUTE SEGMENTED NEUTROPHIL: 1187.33 CELLS/uL
  BASOPHIL: 0%
  EOSINOPHIL: 0%
  ERYTHROCYTE COUNT: 5.41 x10E6/uL
  HEMATOCRIT: 34.03%
  HEMOGLOBIN: 13.6 G/DL
  LEUKOCYTE COUNT: 14.63 x10E3/uL
  LYMPHOCYTE: 91.33%
  MEAN CORPUSCULAR HEMOGLOBIN: 25.17 pg
  MEAN CORPUSCULAR HEMOGLOBIN CONCENTRATION: 39.93 G/DL
  MEAN CORPUSCULAR VOLUME: 63.03 fL
  MONOCYTE: 0.67%
  NEUTROPHIL: 8%
  NUCLEATED RED BLOOD CELLS: 0.33 /100WBC
  PLATELET COUNT: 1467.33 x10E3/uL
  ALANINE AMINOTRANSFERASE: 52.67 u/L
  ALBUMIN: 4.13 G/DL
  ALKALINE PHOSPHATASE: 370.67 u/L
  ASPARTATE AMINOTRANSFERASE: 78.67 u/L
  BLOOD UREA NITROGEN: 18 mg/dL
  CARBON DIOXIDE: 30.67 mmol/L
  CHLORIDE: 99.67 MEQ/L
  CHOLESTEROL: 63 mg/dL
  CREATINE PHOSPHOKINASE: 265.67 u/L
  CREATININE: 0.18 mg/dL
  GLUCOSE: 137.33 mg/dL
  LACTATE DEHYDROGENASE: 130 u/L
  LIPASE: 9 u/L
  PHOSPHORUS: 11.77 mg/dL
  POTASSIUM: 6.67 MEQ/L
  SODIUM: 143.1 MEQ/L
  TOTAL BILIRUBIN: 0.2 mg/dL
  TOTAL PROTEIN: 5.9 G/DL
  URIC ACID: 1.83 mg/dL

Reference: ChEMBL document CHEMBL3885881, “DrugMatrix”
